Tests used:
CquiOR37 = target: T1, CquiOR37 (Culex quinquefasciatus, UniProt W0HHK8); format: cell-based
T1 sequence (W0HHK8 1-385): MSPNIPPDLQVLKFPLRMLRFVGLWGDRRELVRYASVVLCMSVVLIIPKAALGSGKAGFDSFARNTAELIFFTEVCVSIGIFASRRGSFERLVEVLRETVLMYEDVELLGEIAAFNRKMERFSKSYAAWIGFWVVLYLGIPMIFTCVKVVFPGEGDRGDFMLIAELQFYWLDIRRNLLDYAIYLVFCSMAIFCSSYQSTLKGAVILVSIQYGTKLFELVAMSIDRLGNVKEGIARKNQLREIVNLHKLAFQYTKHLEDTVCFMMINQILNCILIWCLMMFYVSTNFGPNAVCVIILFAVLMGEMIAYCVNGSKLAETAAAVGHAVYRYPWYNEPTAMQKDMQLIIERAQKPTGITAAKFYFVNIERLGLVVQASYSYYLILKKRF
T1 sequence (Q309I4 1-480 partner): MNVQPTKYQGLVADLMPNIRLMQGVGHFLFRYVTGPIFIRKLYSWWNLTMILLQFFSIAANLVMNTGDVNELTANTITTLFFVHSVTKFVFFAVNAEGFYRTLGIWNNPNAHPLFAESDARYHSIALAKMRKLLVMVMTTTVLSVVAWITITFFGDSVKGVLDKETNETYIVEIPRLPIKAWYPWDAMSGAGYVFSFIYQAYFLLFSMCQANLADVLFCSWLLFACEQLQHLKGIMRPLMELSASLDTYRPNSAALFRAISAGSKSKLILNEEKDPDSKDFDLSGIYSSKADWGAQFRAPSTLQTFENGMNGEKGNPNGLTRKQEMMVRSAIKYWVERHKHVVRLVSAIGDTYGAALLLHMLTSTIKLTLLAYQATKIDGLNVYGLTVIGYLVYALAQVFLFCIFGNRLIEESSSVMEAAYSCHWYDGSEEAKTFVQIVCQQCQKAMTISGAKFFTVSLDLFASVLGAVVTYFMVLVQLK

CquiOR99 = target: T2, CquiOR99 (Culex quinquefasciatus, UniProt W0HIQ7); format: cell-based
T2 sequence (W0HIQ7 1-389): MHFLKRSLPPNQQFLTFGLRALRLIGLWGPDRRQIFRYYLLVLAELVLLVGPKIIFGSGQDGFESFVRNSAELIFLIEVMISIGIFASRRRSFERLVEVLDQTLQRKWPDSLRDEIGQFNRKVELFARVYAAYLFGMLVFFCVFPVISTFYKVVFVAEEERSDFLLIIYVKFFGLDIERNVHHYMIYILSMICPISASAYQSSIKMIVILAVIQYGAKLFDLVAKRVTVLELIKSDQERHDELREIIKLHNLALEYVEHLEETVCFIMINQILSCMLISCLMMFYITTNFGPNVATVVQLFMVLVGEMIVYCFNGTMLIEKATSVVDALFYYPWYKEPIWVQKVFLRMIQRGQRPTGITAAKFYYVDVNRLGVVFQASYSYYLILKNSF
T2 sequence (Q309I4 1-480 partner): T1 sequence (Q309I4 1-480 partner)

Row | SMILES | EC50 (CquiOR37) [µM] | EC50 (CquiOR99) [µM]
1 | Cc1ccc(O)cc1 [4-methylphenol] | 6.4 | 14.4
2 | CCc1ccc(O)cc1 [4-ethylphenol] | 18.2 | 0.74

Source: PMC3800558 (Insect biochemistry and molecular biology, 2013)
